From the NIST ThermoML archive (doi:10.1016/j.jct.2006.09.012)
Values joined by “and” are separate entries in the source; they are usually repeats but may differ in a detail not shown here. Identical values can stand only once.

Details: Gas, Buoyancy - hydrostatic balance with magnetic suspension - two sinkers

[He] [helium]
Details | mass density
223.15 K, 1881.4 kPa | 4.0102 kg/m3 and 4.0101 kg/m3
223.15 K, 1881.5 kPa | 4.0102 kg/m3
223.15 K, 3970 kPa | 8.3499 kg/m3
223.15 K, 3970.1 kPa | 8.3501 kg/m3 and 8.3499 kg/m3 and 8.35 kg/m3
223.15 K, 3970.2 kPa | 8.3499 kg/m3
223.15 K, 8133.1 kPa | 16.67 kg/m3 and 16.6699 kg/m3 and 16.6701 kg/m3
223.15 K, 8133.2 kPa | 16.6699 kg/m3 and 16.6701 kg/m3
223.15 K, 11880 kPa | 23.8087 kg/m3 [middle of 5 runs]
223.15 K, 15827 kPa | 30.9985 kg/m3
223.15 K, 15828 kPa | 30.9993 kg/m3 [middle of 4 runs]
223.15 K, 19642 kPa | 37.6507 kg/m3 [middle of 4 runs]
223.15 K, 26024 kPa | 48.1863 kg/m3 and 48.1868 kg/m3
223.15 K, 26025 kPa | 48.1881 kg/m3 and 48.1886 kg/m3 and 48.1887 kg/m3
223.15 K, 32014 kPa | 57.4666 kg/m3
223.15 K, 32015 kPa | 57.4668 kg/m3 and 57.4679 kg/m3
223.15 K, 32016 kPa | 57.4684 kg/m3
223.15 K, 32017 kPa | 57.4698 kg/m3
223.15 K, 38281 kPa | 66.6119 kg/m3
223.15 K, 38282 kPa | 66.6131 kg/m3 and 66.6126 kg/m3
223.15 K, 38283 kPa | 66.614 kg/m3
223.15 K, 38284 kPa | 66.616 kg/m3
253.15 K, 1929.2 kPa | 3.629 kg/m3 and 3.6292 kg/m3
253.15 K, 1929.3 kPa | 3.629 kg/m3 and 3.6294 kg/m3 and 3.6292 kg/m3
253.15 K, 3784.6 kPa | 7.046 kg/m3 and 7.0462 kg/m3 and 7.0461 kg/m3
253.15 K, 7472.2 kPa | 13.634 kg/m3
253.15 K, 7472.3 kPa | 13.634 kg/m3
253.15 K, 11895 kPa | 21.202 kg/m3 and 21.2018 kg/m3
253.15 K, 11896 kPa | 21.2023 kg/m3 and 21.2022 kg/m3 and 21.2019 kg/m3
253.15 K, 15957 kPa | 27.8548 kg/m3
253.15 K, 15958 kPa | 27.8555 kg/m3 [middle of 4 runs]
253.15 K, 19865 kPa | 34.0064 kg/m3 and 34.007 kg/m3
253.15 K, 19866 kPa | 34.0081 kg/m3 and 34.0112 kg/m3
253.15 K, 25976 kPa | 43.1785 kg/m3
253.15 K, 25977 kPa | 43.179 kg/m3 and 43.1796 kg/m3
253.15 K, 25978 kPa | 43.181 kg/m3 and 43.1801 kg/m3
253.15 K, 31938 kPa | 51.6436 kg/m3 and 51.6443 kg/m3
253.15 K, 31940 kPa | 51.647 kg/m3 and 51.6462 kg/m3 and 51.6454 kg/m3
253.15 K, 37813 kPa | 59.5651 kg/m3
253.15 K, 37814 kPa | 59.5664 kg/m3
253.15 K, 37815 kPa | 59.5673 kg/m3
253.15 K, 37816 kPa | 59.5686 kg/m3
253.15 K, 37817 kPa | 59.5703 kg/m3
273.16 K, 935.8 kPa | 1.6415 kg/m3
273.16 K, 935.9 kPa | 1.6416 kg/m3 and 1.6415 kg/m3
273.16 K, 1881.8 kPa | 3.2839 kg/m3
273.16 K, 1927.3 kPa | 3.363 kg/m3 and 3.3629 kg/m3
273.16 K, 1927.4 kPa | 3.3629 kg/m3 and 3.363 kg/m3
273.16 K, 1956.4 kPa | 3.4135 kg/m3
